# From ChEMBL document CHEMBL4765241, “Identification and Preclinical Pharmacology of ((1 R,3 S)-1-Amino-3-(( S)-6-(2-methoxyphenethyl)-5,6,7,8-tetrahydronaphthalen-2-yl)cyclopentyl)methanol (BMS-986166): A Differentiated Sphingosine-1-phosphate Receptor 1 (S1P) Modulator Advanced into Clinical Trials” (J Med Chem, 2019)
# Columns and labels:
# [1] = Drug metabolism in pH 7.4 Tris-HCl buffer assessed as amount of phosphate ester metabolite formation at […] in presence of sphingosine kinase 1,2 and Mg-ATP incubated for 30 mins by TLC based analysis relative to fingolimod
# Mus musculus [2] = assay: Reduction in circulating lymphocytes in Balb/c mouse blood at 50 mg/kg, po measured at 4 hrs by hematology analyzer based analysis; format: functional; parameters: scale not given: the % may be the effect or the level left
# [3] = Drug metabolism in Balb/c mouse blood assessed as concentration of parent compound at 1 mg/kg, po measured at 4 hrs by LC-MS/MS analysis; format: ADME, organism-based; details: read-out: Ct; for concentration at 4 h: Balb/c, blood
# [4] = Drug metabolism in Balb/c mouse blood assessed as concentration of parent compound at 1 mg/kg, po measured at 24 hrs by LC-MS/MS analysis; format: ADME, organism-based; details: read-out: Ct; for concentration at 24 h: Balb/c, blood
# [5] = Drug metabolism in Balb/c mouse blood assessed as concentration of phosphate ester metabolite formation at 1 mg/kg, po measured at 24 hrs by LC-MS/MS analysis; format: ADME, organism-based; details: in vivo
# Mus musculus [6] = assay: Reduction in circulating lymphocytes in Balb/c mouse blood at 1 mg/kg, po measured at 4 hrs by hematology analyzer based analysis; format: functional; parameters: scale not given: the % may be the effect or the level left
# [7] = Drug metabolism in Balb/c mouse blood assessed as concentration of phosphate ester metabolite formation at 1 mg/kg, po measured at 4 hrs by LC-MS/MS analysis; format: ADME, organism-based; details: in vivo
# Mus musculus [8] = assay: Reduction in circulating lymphocytes in Balb/c mouse blood at 50 mg/kg, po measured at 24 hrs by hematology analyzer based analysis; format: functional; parameters: scale not given: the % may be the effect or the level left
# [9] = Drug metabolism in Balb/c mouse blood assessed as concentration of phosphate ester metabolite formation at 50 mg/kg, po measured at 24 hrs by LC-MS/MS analysis; format: ADME, organism-based; details: in vivo
# [10] = Drug metabolism in Balb/c mouse blood assessed as concentration of phosphate ester metabolite formation at 50 mg/kg, po measured at 4 hrs by LC-MS/MS analysis; format: ADME, organism-based; details: in vivo
# [11] = Drug metabolism in Balb/c mouse blood assessed as concentration of parent compound at 50 mg/kg, po measured at 24 hrs by LC-MS/MS analysis; format: ADME, organism-based; details: read-out: Ct
# Mus musculus [12] = assay: Reduction in circulating lymphocytes in Balb/c mouse blood at 1 mg/kg, po measured at 24 hrs by hematology analyzer based analysis; format: functional; parameters: scale not given: the % may be the effect or the level left
# [13] = Drug metabolism in Balb/c mouse blood assessed as concentration of parent compound at 50 mg/kg, po measured at 4 hrs by LC-MS/MS analysis; format: ADME, organism-based; details: read-out: Ct
# [14] = Ratio of drug metabolism in Balb/c mouse blood assessed as phosphate ester metabolite to parent drug at 30 mg/kg, po measured at 24 hrs by LC-MS/MS analysis; details: in vivo
# [15] = Ratio of drug metabolism in Balb/c mouse blood assessed as phosphate ester metabolite to parent drug at 1 mg/kg, po measured at 24 hrs by LC-MS/MS analysis; format: ADME, organism-based; details: in vivo
# [16] = Cardiotoxicity in human iPSC derived cardiomyocytes assessed as reduction in beating rate at 10 nM measured over 2 hrs by multi-electrode array relative to control; format: toxicity, cell-based; parameters: scale not given: the % may be the effect or the level left; details: stem cell-derived cardiomyocyte, 0.01 µM
# [17] = Cardiotoxicity in human iPSC derived cardiomyocytes assessed as reduction in beating rate at 1 nM measured over 2 hrs by multi-electrode array relative to control; format: toxicity, cell-based; parameters: scale not given: the % may be the effect or the level left; details: stem cell-derived cardiomyocyte, 0.001 µM
# Mus musculus [18] = assay: Reduction in circulating lymphocytes in Balb/c mouse blood at 30 mg/kg, po measured at 4 hrs by hematology analyzer based analysis; format: functional; parameters: scale not given: the % may be the effect or the level left; details: 30 mg/kg, 4 h
# [19] = Drug metabolism in Balb/c mouse blood assessed as concentration of parent compound at 30 mg/kg, po measured at 24 hrs by LC-MS/MS analysis; format: ADME, organism-based; details: in vivo, 30 mg/kg, 24 h, 30 mg/kg, 24 h, read-out: Ct
# [20] = Drug metabolism in Balb/c mouse blood assessed as phosphate ester metabolite formation at 30 mg/kg, po measured at 4 hrs by LC-MS/MS analysis; format: ADME, organism-based; details: in vivo
# [21] = Drug metabolism in Balb/c mouse blood assessed as concentration of phosphate ester metabolite formation at 30 mg/kg, po measured at 24 hrs by LC-MS/MS analysis; format: ADME, organism-based; details: in vivo
# Mus musculus [22] = assay: Reduction in circulating lymphocytes in Balb/c mouse blood at 30 mg/kg, po measured at 24 hrs by hematology analyzer based analysis; format: functional; parameters: scale not given: the % may be the effect or the level left; details: 30 mg/kg, 24 h
# [23] = Ratio of drug metabolism in Balb/c mouse blood assessed as phosphate ester metabolite to parent drug at 30 mg/kg, po measured at 24 hrs by LC-MS/MS analysis; format: ADME, organism-based; details: in vivo
# [24] = Drug metabolism in Balb/c mouse blood assessed as concentration of parent compound at 30 mg/kg, po measured at 4 hrs by LC-MS/MS analysis; format: ADME, organism-based; details: in vivo, 30 mg/kg, 4 h, 30 mg/kg, 4 h, read-out: Ct
# [25] = Half-life in Lewis rat at 2 mg/kg, po measured over 72 hrs by LC-MS/MS analysis; format: ADME, organism-based; details: in vivo
# [26] = Drug metabolism in Lewis rat blood assessed as concentration of parent compound at 2 mg/kg, po measured at 4 hrs by LC-MS/MS analysis; format: ADME, organism-based; details: read-out: Ct
# [27] = Drug metabolism in Lewis rat blood assessed as concentration of parent compound at 2 mg/kg, po measured at 24 hrs by LC-MS/MS analysis; format: ADME, organism-based; details: read-out: Ct
# Rattus norvegicus [28] = assay: Drug metabolism in Lewis rat blood assessed as concentration of phosphate ester metabolite formation at 2 mg/kg, po measured at 4 hrs by LC-MS/MS analysis; details: in vivo
# [29] = Ratio of drug metabolism in Lewis rat blood assessed as phosphate ester metabolite to parent drug at 2 mg/kg, po measured at 24 hrs by LC-MS/MS analysis; format: ADME, organism-based; details: in vivo
# Rattus norvegicus [30] = assay: Reduction in circulating lymphocytes in Lewis rat blood at 2 mg/kg, po measured at 24 hrs by hematology analyzer based analysis; format: functional; parameters: scale not given: the % may be the effect or the level left
# Rattus norvegicus [31] = assay: Reduction in circulating lymphocytes in Lewis rat blood assessed as effective dose after oral dosing measured at 24 hrs by hematology analyzer based analysis; format: functional
# [32] = Pulmonary toxicity in Lewis rat assessed as elevation of BAL protein level at 2 mg/kg by advia1800 chemistry analyzer; format: organism-based; details: in vivo
# [33] = Pulmonary toxicity in Lewis rat assessed as elevation of BAL protein level at 10 mg/kg by advia1800 chemistry analyzer; format: organism-based; details: in vivo
# Rattus norvegicus [34] = assay: Reduction in circulating lymphocytes in Lewis rat blood at 2 mg/kg, po measured at 4 hrs by hematology analyzer based analysis; format: functional; parameters: scale not given: the % may be the effect or the level left
smiles,measurement,setting,value
Cn1cc(CC[C@@H]2CCc3cc([C@H]4CC[C@](N)(CO)C4)ccc3C2)cn1,Drug metabolism,[1],6%
N[C@]1(CO)CC[C@H](c2ccc3c(c2)CC[C@H](Cc2ccccc2)C3)C1,Activity,Mus musculus [2],83%
same,concentration at 4 h,[3],28 nM
same,concentration at 24 h,[4],9 nM
same,Drug metabolism,[5],11 nM
same,Activity,Mus musculus [6],21%
same,Drug metabolism,[7],12 nM
same,Activity,Mus musculus [8],78%
same,Drug metabolism,[9],310 nM
same,Drug metabolism,[10],480 nM
same,concentration at 24 h,[11],300 nM
same,Activity,Mus musculus [12],15%
same,concentration at 4 h,[13],1800 nM
same,Ratio,[14],1
same,Ratio,[15],1.2
COc1cccc(CC[C@@H]2CCc3cc([C@H]4CC[C@](N)(COP(=O)(O)O)C4)ccc3C2)c1,Activity,[16],31%
same,Activity,[17],15%
"N[C@]1(CO)CC[C@H](c2ccc3c(c2)CCC(CCc2ccncc2)C3)C1 (single isomer, unassigned)",Drug metabolism,[1],0%
Cn1ccc(CC[C@@H]2CCc3cc([C@H]4CC[C@](N)(CO)C4)ccc3C2)n1,Drug metabolism,[1],8%
N[C@]1(CO)CC[C@H](c2ccc3c(c2)CCC(c2ccccc2)C3)C1 (stereo in doubt; 8b),concentration,"[3]; in vivo, 1 mg/kg, 4 h, 1 mg/kg, 4 h",16 nM
same,Activity,Mus musculus [18],72%
same,concentration,"[4]; in vivo, 1 mg/kg, 24 h, 1 mg/kg, 24 h",16 nM
same,concentration,[19],300 nM
same,Drug metabolism,[20],36 nM
same,Drug metabolism,[21],49 nM
same,Activity,Mus musculus [22],84%
same,Ratio,[23],0.16
same,concentration,[24],750 nM
same,Activity,"Mus musculus [12]; 1 mg/kg, 24 h",36%
N[C@]1(CO)CC[C@H](c2ccc3c(c2)CC[C@@H](CCc2cccnc2)C3)C1,Drug metabolism,[1],3%
N[C@]1(CO)CC[C@H](c2ccc3c(c2)CC[C@@H](Cc2ccccc2)C3)C1,Activity,Mus musculus [2],82%
same,concentration at 4 h,[3],12 nM
same,concentration at 24 h,[4],5.6 nM
same,Drug metabolism,[5]; BLD = below limit of detection,Bld
same,Activity,Mus musculus [6],<10%
same,Drug metabolism,[7],5.6 nM
same,Activity,Mus musculus [8],84%
same,Drug metabolism,[9],750 nM
same,Drug metabolism,[10],1100 nM
same,concentration at 24 h,[11],530 nM
same,Activity,Mus musculus [12],<10%
same,concentration at 4 h,[13],2400 nM
same,Ratio,[14],1.4
COc1ccc(CC[C@@H]2CCc3cc([C@H]4CC[C@](N)(COP(=O)(O)O)C4)ccc3C2)cc1,Activity,[16],35%
same,Activity,[17],27%
N[C@]1(CO)CC[C@H](c2ccc3c(c2)CC[C@H](CCc2ccccn2)C3)C1,Drug metabolism,[1],1.8%
COc1ccc(CC2CCc3cc([C@H]4CC[C@](N)(CO)C4)ccc3C2)cc1 (stereo in doubt; 13b),half-life,[25],64 h
same,concentration at 4 h,[26],90 nM
same,concentration at 24 h,[27],60 nM
same,Drug metabolism,Rattus norvegicus [28],50 nM
same,Ratio,[29],1.3
same,Activity,"Rattus norvegicus [30]; 2 mg/kg, 24 h",73%
COc1cccc(CC[C@H]2CCc3cc([C@H]4CC[C@](N)(COP(=O)(O)O)C4)ccc3C2)c1,Activity,[16],20%
same,Activity,[17],23%
N[C@]1(CO)CC[C@H](c2ccc3c(c2)CC[C@H](CCc2ncccn2)C3)C1,Drug metabolism,[1],6%
COc1ccccc1CC[C@H]1CCc2cc([C@H]3CC[C@](N)(CO)C3)ccc2C1,ED50,Rattus norvegicus [31],0.05 mg/kg
same,half-life,[25],20 h
same,concentration at 4 h,[26],90 nM
same,Activity,[32],10.5 mg/dL
same,Activity,[33],29 mg/dL
same,concentration at 24 h,[27],50 nM
same,Drug metabolism,Rattus norvegicus [28],40 nM
same,Activity,Rattus norvegicus [34],46%
same,Ratio,[29],1
same,Activity,Rattus norvegicus [30],81%
